Reference: ChEMBL document CHEMBL1132457 (J Med Chem, 1999)

Legend:
[1] = target: T1, Adenosine receptor A3 (Homo sapiens) (UniProt P0DMS8); assay: Percent inhibition of cAMP-accumulation in CHO cells by IB-MECA at 1 uM.; assay type: functional, cell-based
T1 sequence (whole entry): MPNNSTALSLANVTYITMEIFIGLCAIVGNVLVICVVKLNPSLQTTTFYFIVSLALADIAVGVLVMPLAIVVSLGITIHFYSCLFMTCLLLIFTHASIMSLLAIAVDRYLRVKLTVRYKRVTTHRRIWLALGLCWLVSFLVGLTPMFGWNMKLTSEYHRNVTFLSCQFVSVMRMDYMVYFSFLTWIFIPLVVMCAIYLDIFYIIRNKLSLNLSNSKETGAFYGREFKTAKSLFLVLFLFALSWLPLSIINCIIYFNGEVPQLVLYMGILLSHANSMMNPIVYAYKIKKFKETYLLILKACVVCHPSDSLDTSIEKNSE

[2] = target: Adenosine receptors; A1 & A3 (Homo sapiens) (UniProt P30542+P0DMS8); assay: Ratio of binding affinity for human adenosine A1 and A3 receptors expressed in HEK293 cells; assay type: cell-based
[3] = target: T2, Adenosine receptor A3 (Rattus norvegicus) (UniProt P28647); assay type: cell-based; conditions: CHO, 10 mM
T2 sequence (whole entry): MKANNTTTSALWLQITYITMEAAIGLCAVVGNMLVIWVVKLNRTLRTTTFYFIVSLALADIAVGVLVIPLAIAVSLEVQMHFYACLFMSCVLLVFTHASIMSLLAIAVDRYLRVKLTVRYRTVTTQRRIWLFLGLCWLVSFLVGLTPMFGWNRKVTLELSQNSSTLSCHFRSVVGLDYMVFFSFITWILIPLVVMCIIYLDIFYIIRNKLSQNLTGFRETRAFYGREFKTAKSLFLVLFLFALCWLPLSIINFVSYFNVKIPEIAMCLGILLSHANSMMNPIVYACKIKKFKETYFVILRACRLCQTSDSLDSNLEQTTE

[4] = tested on: HEK293; assay: Ratio of binding affinity for rat adenosine A1 and human adenosine A3 receptors expressed in HEK293 cells; assay type: cell-based
[5] = target: T3, Adenosine receptor A1 (Homo sapiens, UniProt P30542); assay: Displacement of [3H]DPCPX from human Adenosine A1 receptor expressed in CHO cells; assay type: cell-based
T3 sequence (P30542 whole entry): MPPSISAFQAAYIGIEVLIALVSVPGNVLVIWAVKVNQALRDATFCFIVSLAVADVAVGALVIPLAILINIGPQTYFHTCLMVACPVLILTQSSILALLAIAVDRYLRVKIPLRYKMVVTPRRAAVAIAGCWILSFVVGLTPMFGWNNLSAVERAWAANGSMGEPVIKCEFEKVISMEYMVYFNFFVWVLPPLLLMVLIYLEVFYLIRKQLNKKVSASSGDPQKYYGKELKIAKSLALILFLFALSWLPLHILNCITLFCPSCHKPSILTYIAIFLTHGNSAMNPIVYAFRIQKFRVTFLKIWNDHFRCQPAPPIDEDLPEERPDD

[6] = tested on: HEK293; assay: Ratio of binding affinity for rat adenosine A2A of striatal membranes and human adenosine A3 receptors expressed in HEK293 cells; assay type: cell-based
[7] = target: T4, Adenosine receptor A2a (Homo sapiens, UniProt P29274); assay: Displacement of specific [3H]-SCH- 58261 binding at human Adenosine A2A receptor expressed in HEK293 cells; assay type: cell-based
T4 sequence (P29274 whole entry): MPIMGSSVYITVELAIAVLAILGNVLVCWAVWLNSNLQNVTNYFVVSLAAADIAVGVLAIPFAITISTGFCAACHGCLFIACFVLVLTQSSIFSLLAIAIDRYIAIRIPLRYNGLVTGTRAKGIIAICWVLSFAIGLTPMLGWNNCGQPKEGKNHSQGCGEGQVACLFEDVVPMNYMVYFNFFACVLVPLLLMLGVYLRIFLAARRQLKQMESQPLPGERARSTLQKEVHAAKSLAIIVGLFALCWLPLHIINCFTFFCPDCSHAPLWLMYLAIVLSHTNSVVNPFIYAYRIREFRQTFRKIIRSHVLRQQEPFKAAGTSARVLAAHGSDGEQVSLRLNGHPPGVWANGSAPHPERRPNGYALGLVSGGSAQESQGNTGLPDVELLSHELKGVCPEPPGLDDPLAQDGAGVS

[8] = target: T1, Adenosine receptor A3 (Homo sapiens); assay: Percent inhibition of cAMP-accumulation in CHO cells by IB-MECA at 1 uM; assay type: functional, cell-based
[9] = target: T5, Adenosine receptor A1 (Rattus norvegicus, UniProt P25099); assay: Displacement of [3H]DPCPX from Adenosine A1 receptor of rat brain membranes; assay type: cell membranes, Membrane
T5 sequence (P25099 whole entry): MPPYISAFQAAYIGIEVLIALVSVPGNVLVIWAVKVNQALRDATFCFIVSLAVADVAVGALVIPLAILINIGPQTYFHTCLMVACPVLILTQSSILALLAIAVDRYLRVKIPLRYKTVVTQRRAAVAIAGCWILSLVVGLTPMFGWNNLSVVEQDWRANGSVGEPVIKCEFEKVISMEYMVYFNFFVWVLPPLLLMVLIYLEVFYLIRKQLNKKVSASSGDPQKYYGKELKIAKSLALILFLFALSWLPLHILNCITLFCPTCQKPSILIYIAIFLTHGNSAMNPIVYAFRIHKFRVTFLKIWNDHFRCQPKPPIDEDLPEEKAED

[10] = target: T1, Adenosine receptor A3 (Homo sapiens); conditions: CHO, 1 uM
Description: Percent inhibition of cAMP-accumulation in CHO cells expressing hA3 adenosine receptors by IB-MECA at 1 uM.

[11] = target: T6, Adenosine receptor A3 (Homo sapiens, UniProt P0DMS8); assay: Inhibitory concentration as antagonistic activity against cAMP generation inhibited by IB-MECA in CHO cell membranes transfected with human A3 receptor; assay type: functional, cell-based
T6 sequence (P0DMS8 whole entry): T1 sequence (whole entry)

[12] = target: Adenosine receptor A2a (Rattus norvegicus, UniProt P30543)
Chain of Adenosine receptor A2a (Rattus norvegicus, UniProt P30543) (P30543 whole entry): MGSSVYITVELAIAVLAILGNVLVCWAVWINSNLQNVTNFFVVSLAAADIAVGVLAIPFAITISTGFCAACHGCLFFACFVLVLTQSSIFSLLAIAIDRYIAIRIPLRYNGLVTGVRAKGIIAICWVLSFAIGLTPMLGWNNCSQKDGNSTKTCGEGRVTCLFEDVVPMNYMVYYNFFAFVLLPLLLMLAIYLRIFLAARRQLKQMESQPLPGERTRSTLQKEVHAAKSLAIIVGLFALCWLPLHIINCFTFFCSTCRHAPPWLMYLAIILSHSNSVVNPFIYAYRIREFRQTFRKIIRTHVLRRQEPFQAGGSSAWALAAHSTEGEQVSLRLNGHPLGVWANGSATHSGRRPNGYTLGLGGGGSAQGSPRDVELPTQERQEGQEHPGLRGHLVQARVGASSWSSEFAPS
Description: Displacement of [3H]-SCH- 58261 from Adenosine A2A receptor in rat striatal membranes

[13] = target: T6, Adenosine receptor A3; assay: Inhibitory concentration as antagonistic activity against cAMP generation inhibited by IB-MECA in CHO cell membranes transfected with human Adenosine A3 receptor; assay type: functional, cell-based
[14] = target: T1, Adenosine receptor A3 (Homo sapiens); conditions: CHO, 1 uM; remark: listed apart in the source
Description: Perent inhibition of cAMP-accumulation in CHO cells expressing human Adenosine A3 receptor by IB-MECA at 1 uM.

[15] = target: T4, Adenosine receptor A2a; assay: Displacement of [3H]-SCH- 58261 from human Adenosine A2A receptor expressed in HEK293 cells; assay type: cell-based

Compound | inhibition [1] [%] | Ratio [2] | inhibition [3] [%] | Ratio [4] | Ki [5] [nM] | Ratio [6] | Ki [7] [nM] | inhibition [8] [%] | Ki [9] [nM] | inhibition [10] [%] | IC50 [11] [nM] | Ki [12] [nM] | IC50 [13] [nM] | inhibition [14] [%] | Ki [15] [nM]
Nc1nc2nn(CCCc3ccccc3)cc2c2nc(-c3ccco3)nn12 | 6 | 0.001 | 32 | 0.004 | 3 | 0.0002 | 0.18 |  |  |  |  |  |  |  | 
O=C(Nc1cccc(Cl)c1)Nc1nc2nn(CCCc3ccccc3)cc2c2nc(-c3ccco3)nn12 |  |  | 20 | > 234 | 1500 | 75 | 202 | 50 |  |  |  |  |  |  | 
CCn1cc2c(nc(NC(=O)Nc3ccc(OC)cc3)n3nc(-c4ccco4)nc23)n1 |  |  | 39 |  |  |  |  |  | > 10000 | 88 | 6.5 | > 10000 |  |  | 
CCCn1cc2c(nc(N)n3nc(-c4ccco4)nc23)n1 |  | 0.016 | 2 | 0.22 | 10 | 0.03 | 2.55 |  |  |  |  |  | 40.2 |  | 
O=C(Nc1cccc(Cl)c1)Nc1nc2nn(CCc3ccccc3)cc2c2nc(-c3ccco3)nn12 | 62 | 19 | 30 | 79 | 251 | 128 | 110 |  |  |  |  |  |  |  | 
COc1ccc(NC(=O)Nc2nc3nn(CCc4ccccc4)cc3c3nc(-c4ccco4)nn23)cc1 | 81 | 136 | 37 | 872 | 201 | 951 | 124 |  |  |  | 12.4 |  |  |  | 
CCn1cc2c(nc(N)n3nc(-c4ccco4)nc23)n1 | 3 | 0.0014 | 1 | 0.03 | 5 | 0.003 | 1.9 |  |  |  |  |  |  |  | 
CCCn1cc2c(nc(NC(=O)Nc3ccc(OC)cc3)n3nc(-c4ccco4)nc23)n1 |  |  | 37 |  |  |  |  |  |  |  |  |  |  | 89 | 
CCCn1cc2c(nc(NC(=O)Nc3cccc(Cl)c3)n3nc(-c4ccco4)nc23)n1 |  |  | 20 |  | 30 |  |  |  |  | 87 | 5.3 | > 10000 |  |  | 1220
CCn1cc2c(nc(NC(=O)Nc3cccc(Cl)c3)n3nc(-c4ccco4)nc23)n1 |  |  | 36 |  | 249 |  | 185 |  |  | 71 |  |  | 15.1 |  | 
Nc1nc2nn(CCc3ccccc3)cc2c2nc(-c3ccco3)nn12 | 5 |  | 12 |  | 1 |  | 0.31 |  |  |  |  |  |  |  | 
COc1ccc(NC(=O)Nc2nc3nn(CCCc4ccccc4)cc3c3nc(-c4ccco4)nn23)cc1 | 56 | 12.6 | 11 | 76.4 | 251 | > 504 | 1020 |  |  |  |  |  |  |  | 
